Source: patent US20250340591A1, “COMPOSITION FOR PREVENTING OR TREATING INFLAMMATORY BOWEL DISEASE CONTAINING NOVEL COMPOUND” (ANYGEN CO., LTD., priority 2021, published 2025)
Read-outs that look alike come from different tables or passages of the source. Square brackets hold non-standard residues; d marks the D form. Peptide text beside a SMILES is read from it. * marks the point of attachment. Tyr(3,5-(NO2)2) = N[C@@H](Cc1cc([N+](=O)[O-])c(O)c([N+](=O)[O-])c1)C(=O)O; His(Trt) = N[C@@H](Cc1cn(C(c2ccccc2)(c2ccccc2)c2ccccc2)cn1)C(=O)O; His(τ-CHPh2) = N[C@@H](Cc1cn(C(c2ccccc2)c2ccccc2)cn1)C(=O)O; dPhe(4-CF3) = N[C@H](Cc1ccc(C(F)(F)F)cc1)C(=O)O; dPhe(4-Me) = Cc1ccc(C[C@@H](N)C(=O)O)cc1; Dmt = Cc1cc(O)cc(C)c1C[C@H](N)C(=O)O; Palmitoyl = CCCCCCCCCCCCCCCC(=O)*; Octanoyl = CCCCCCCC(=O)*

Molecular target: T1, GPR39 (Homo sapiens, UniProt O43194)
T1 sequence (O43194 1-453): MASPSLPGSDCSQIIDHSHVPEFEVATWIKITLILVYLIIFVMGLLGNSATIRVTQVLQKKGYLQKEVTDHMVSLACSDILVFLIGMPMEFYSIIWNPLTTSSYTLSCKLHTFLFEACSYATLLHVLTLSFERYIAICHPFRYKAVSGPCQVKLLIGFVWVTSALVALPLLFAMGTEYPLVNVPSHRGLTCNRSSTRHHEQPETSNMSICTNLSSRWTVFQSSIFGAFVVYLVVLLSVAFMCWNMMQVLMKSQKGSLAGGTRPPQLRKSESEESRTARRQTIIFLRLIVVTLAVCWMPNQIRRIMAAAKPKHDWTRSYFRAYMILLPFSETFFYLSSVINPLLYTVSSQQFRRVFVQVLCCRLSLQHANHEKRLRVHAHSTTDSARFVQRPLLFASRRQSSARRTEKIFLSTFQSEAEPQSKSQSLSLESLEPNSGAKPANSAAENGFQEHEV
Experiment: luciferase assay system (SRE luciferase reporter gene, CV-1 cells expressing GPR39)
Format: cell-based
Parameters: expressed in transfected cells; host or cells: CV-1 fibroblast cell line (Korea Cell Line Bank), adenoviral transduction at 50 MOI

[1] = CV-1 cells, GPR39 and SRE luciferase adenovirus, 6 hours treatment

Compound: CCCCCCCC(=O)NCCCC[C@H](NC(=O)[C@@H](N)Cc1cn(C(c2ccccc2)c2ccc(O)cc2)cn1)C(=O)N[C@H](Cc1ccc(C)cc1)C(=O)N[C@@H](Cc1ccc(O)cc1)C(=O)O (stereo partly drawn) [HKFY-65, ((2R)-2-((2S)-2-((2S)-2-amino-3-(1-((4-hydroxyphenyl)(phenyl)methyl)-1H-imidazol-4-yl)propanamido)-6-octanamidohexanamido)-3-(p-tolyl)propanoyl)-L-tyrosine]
- ECmax (−fold induction over basal): 18.3 ± 2.2 fold induction over basal
- activity level for GPR39 (in words) (comment on Table 3): higher activity level than other HKFY derivatives

Compound: CCCCCCCC(=O)NCCCC[C@H](NC(=O)[C@@H](N)Cc1cn(CCC2CCCCC2)cn1)C(=O)N[C@@H](Cc1ccccc1)C(=O)N[C@@H](Cc1ccc(O)cc1)C(=O)O [HKFY-11, N2-(Nt-(2-cyclohexylethyl)-L-histidyl)-N6-octanoyl-L-lysyl-L-phenylalanyl-L-tyrosine]
- ECmax (−fold induction over basal): 22 ± 2.2 fold induction over basal

Compound: CCCCCCCC(=O)NCCCC[C@H](NC(=O)[C@@H](N)Cc1cn(C(c2ccccc2)c2ccccc2)cn1)C(=O)O [HKFY-79, N2-(Nt-benzhydryl-L-histidyl)-N6-octanoyl-L-lysine]
- ECmax (−fold induction over basal): 11.2 ± 1.4 fold induction over basal

Compound: CCCCCCCC(=O)NCCCC[C@H](NC(=O)[C@@H](N)Cc1cn(C(c2ccccc2)c2ccccc2)cn1)C(=O)N[C@H](Cc1ccc(C)cc1)C(=O)N[C@@H](Cc1cc([N+](=O)[O-])c(O)c([N+](=O)[O-])c1)C(=O)O [HKFY-69, (S)-2-((R)-2-((S)-2-((S)-2-amino-3-(1-benzhydryl-1H-imidazol-4-yl)propanamido)-6-octanamidohexanamido)-3-(p-tolyl)propanamido)-3-(4-hydroxy-3,5-dinitrophenyl)propanoic acid] (H-[His(τ-CHPh2)]K(Octanoyl)[dPhe(4-Me)][Tyr(3,5-(NO2)2)]-OH)
- ECmax (−fold induction over basal) [1]: 12.2 ± 2.5 fold induction over basal

Compound: CCCCCCCC(=O)NCCCC[C@H](NC(=O)[C@@H](N)Cc1cn(C(c2ccccc2)(c2ccccc2)c2ccccc2)cn1)C(=O)N[C@H](Cc1ccc(C(F)(F)F)cc1)C(=O)N[C@@H](Cc1ccc(O)cc1)C(=O)O [HKFY-76, ((R)-2-((S)-2-((S)-2-amino-3-(1-trityl-1H-imidazol-4-yl)propanamido)-6-octanamidohexanamido)-3-(4-(trifluoromethyl)phenyl)propanoyl)-L-tyrosine] (H-[His(Trt)]K(Octanoyl)[dPhe(4-CF3)]Y-OH)
- ECmax (−fold induction over basal): 14.2 ± 3.75 fold induction over basal

Compound: CCCCCCCC(=O)NCCCC[C@H](NC(=O)[C@@H](N)Cc1cn(-c2ccccc2)cn1)C(=O)N[C@H](Cc1ccc(C)cc1)C(=O)N[C@@H](Cc1ccc(O)cc1)C(=O)O [HKFY-58, ((R)-2-((S)-2-((S)-2-amino-3-(1-phenyl-1H-imidazol-4-yl)propanamido)-6-octanamidohexanamido)-3-(p-tolyl)propanoyl)-L-tyrosine]
- ECmax (−fold induction over basal): 9.12 ± 2.1 fold induction over basal

Compound: C=C(CCCCCCC)NCCCC[C@H](NC(=O)[C@@H](N)Cc1cn(C(c2ccccc2)(c2ccccc2)c2ccccc2)cn1)C(=O)N[C@H](Cc1ccc(Cl)cc1)C(=O)N[C@@H](Cc1ccc(O)cc1)C(=O)O [HKFY-13, ((R)-2-((S)-2-((S)-2-amino-3-(1-trityl-1H-imidazol-4-yl)propanamido)-6-(non-1-en-2-ylamino)hexanamido)-3-(4-chlorophenyl)propanoyl)-L-tyrosine]
- ECmax (−fold induction over basal): 25.7 ± 2.4 fold induction over basal

Compound: CCCCCCCC(=O)NCCCC[C@H](NC(=O)[C@@H](N)Cc1cn(C(c2ccccc2)(c2ccccc2)c2ccccc2)cn1)C(=O)N[C@H](Cc1ccc(C)cc1)C(=O)N[C@@H](Cc1ccc(O)cc1)C(=O)O [HKFY-30, ((R)-2-((S)-2-((S)-2-amino-3-(1-trityl-1H-imidazol-4-yl)propanamido)-6-octanamidohexanamido)-3-(p-tolyl)propanoyl)-L-tyrosine] (H-[His(Trt)]K(Octanoyl)[dPhe(4-Me)]Y-OH)
- ECmax (−fold induction over basal): 23.88 ± 3.04 fold induction over basal
- activity level for GPR39 (in words) (comment on Table 3): higher activity level than other HKFY derivatives
- activity and ECmax value for GPR39 (in words) (comment on Table 3, derivatives composed of d-Phe(methyl)): most excellent activity and high ECmax value

Compound: CCCCCCCC(=O)NCCCC[C@H](NC(=O)[C@@H](N)Cc1cn(C(c2ccccc2)c2ccc(OC)cc2)cn1)C(=O)N[C@H](Cc1ccc(C)cc1)C(=O)N[C@@H](Cc1ccc(O)cc1)C(=O)O (stereo partly drawn) [HKFY-64, ((2R)-2-((2S)-2-((2S)-2-amino-3-(1-((4-methoxyphenyl)(phenyl)methyl)-1H-imidazol-4-yl)propanamido)-6-octanamidohexanamido)-3-(p-tolyl)propanoyl)-L-tyrosine]
- ECmax (−fold induction over basal): 16 ± 1.5 fold induction over basal
- activity level for GPR39 (in words) (comment on Table 3): higher activity level than other HKFY derivatives

Compound: CCCCCCCC(=O)NCCCC[C@H](NC(=O)[C@H](N)Cc1cn(C(c2ccccc2)c2ccccc2)cn1)C(=O)N[C@H](Cc1ccc(C)cc1)C(=O)N[C@@H](Cc1ccc(O)cc1)C(=O)O [HKFY-62, ((R)-2-((S)-2-((R)-2-amino-3-(1-benzhydryl-1H-imidazol-4-yl)propanamido)-6-octanamidohexanamido)-3-(p-tolyl)propanoyl)-L-tyrosine]
- ECmax (−fold induction over basal): 28.1 ± 2.1 fold induction over basal

Compound: CCCCCCCC(=O)NCCCC[C@H](NC(=O)[C@@H](N)Cc1cn(C(c2ccccc2)c2ccccc2)cn1)C(=O)N[C@H](Cc1ccc(C)cc1)C(=O)N[C@@H](Cc1c(C)cc(O)cc1C)C(=O)O [HKFY-36, (S)-2-((R)-2-((S)-2-((S)-2-amino-3-(1-benzhydryl-1H-imidazol-4-yl)propanamido)-6-octanamidohexanamido)-3-(p-tolyl)propanamido)-3-(4-hydroxy-2,6-dimethylphenyl)propanoic acid] (H-[His(τ-CHPh2)]K(Octanoyl)[dPhe(4-Me)][Dmt]-OH)
- ECmax (−fold induction over basal) [1]: 9.9 ± 0.28 fold induction over basal

Compound: CCCCCCCC(=O)NCCCC[C@H](NC(=O)[C@@H](N)Cc1cn(C(c2ccccc2)(c2ccccc2)c2ccccc2)cn1)C(=O)N[C@@H](Cc1ccccc1)C(=O)N[C@@H](Cc1ccc(O)cc1)C(=O)N[C@@H](CO)C(=O)N[C@@H](CC(=O)O)C(=O)N[C@@H](CCC(N)=O)C(=O)N[C@@H](CCC(N)=O)C(=O)N[C@@H](C)C(=O)N[C@@H](CCCNC(=N)N)C(=O)N[C@@H](Cc1ccccc1)C(N)=O [HKFY-38, (3S,6S,9S,12S,15S)-15-((S)-2-amino-3-(1-trityl-1H-imidazol-4-yl)propanamido)-12-benzyl-3-(((6S,9S,12S,15S)-1,18-diamino-6-(((S)-1-amino-1-oxo-3-phenylpropan-2-yl)carbamoyl)-12-(3-amino-3-oxopropyl)-1-imino-9-methyl-8,11,14,18-tetraoxo-2,7,10,13-tetraazaoctadecan-15-yl)carbamoyl)-9-(4-hydroxybenzyl)-6-(hydroxymethyl)-5,8,11,14,21-pentaoxo-4,7,10,13,20-pentaazaoctacosanoic acid] (H-[His(Trt)]K(Octanoyl)FYSDQQARF-NH2)
- ECmax (−fold induction over basal): 16.5 ± 0.02 fold induction over basal

Compound: CCCCCCCC(=O)NCCCC[C@H](NC(=O)[C@@H](N)Cc1c[nH]c(-c2ccccc2)n1)C(=O)N[C@H](Cc1ccc(C)cc1)C(=O)N[C@@H](Cc1ccc(O)cc1)C(=O)O [HKFY-57, ((R)-2-((S)-2-((S)-2-amino-3-(2-phenyl-1H-imidazol-4-yl)propanamido)-6-octanamidohexanamido)-3-(p-tolyl)propanoyl)-L-tyrosine]
- ECmax (−fold induction over basal): 8.5 ± 2.3 fold induction over basal

Compound: C[C@H](NC(=O)[C@H](CCC(N)=O)NC(=O)[C@H](CCC(N)=O)NC(=O)[C@H](CC(=O)O)NC(=O)[C@H](Cc1ccc(O)cc1)NC(=O)[C@H](Cc1ccccc1)NC(=O)[C@@H](N)Cc1cn(C(c2ccccc2)(c2ccccc2)c2ccccc2)cn1)C(=O)N[C@@H](CCCNC(=N)N)C(=O)N[C@@H](Cc1ccccc1)C(N)=O [HKFY-52, (6S,9S,12S,15S,18S)-1-amino-6-(((S)-1-amino-1-oxo-3-phenylpropan-2-yl)carbamoyl)-18-((S)-2-((S)-2-((S)-2-amino-3-(1-trityl-1H-imidazol-4-yl)propanamido)-3-phenylpropanamido)-3-(4-hydroxyphenyl)propanamido)-12,15-bis(3-amino-3-oxopropyl)-1-imino-9-methyl-8,11,14,17-tetraoxo-2,7,10,13,16-pentaazaicosan-20-oic acid] (H-[His(Trt)]FYDQQARF-NH2)
- ECmax (−fold induction over basal): 15.5 ± 2.2 fold induction over basal

Compound: CCCCCCCCCCCCCCCC(=O)NCCCC[C@H](NC(=O)[C@@H](N)Cc1cn(C(c2ccccc2)(c2ccccc2)c2ccccc2)cn1)C(=O)N[C@@H](Cc1ccccc1)C(=O)N[C@@H](Cc1ccc(O)cc1)C(=O)O [HKFY-27, N6-palmitoyl-N2-(Nt-trityl-L-histidyl)-L-lysyl-L-phenylalanyl-L-tyrosine] (H-[His(Trt)]K(Palmitoyl)FY-OH)
- ECmax (−fold induction over basal): 20.4 ± 0.57 fold induction over basal

Compound: CCCCCCCC(=O)NCCCC[C@H](NC(=O)[C@@H](N)Cc1cn(C(c2ccccc2)(c2ccccc2)c2ccccc2)cn1)C(=O)N[C@@H](Cc1ccccc1)C(=O)N[C@@H](Cc1ccc(O)cc1)C(=O)N[C@@H](Cc1c[nH]c2ccccc12)C(=O)O [HKFY-44, N6-octanoyl-N2-(Nt-trityl-L-histidyl)-L-lysyl-L-phenylalanyl-L-tyrosyl-L-tryptophan] (H-[His(Trt)]K(Octanoyl)FYW-OH)
- ECmax (−fold induction over basal): 20 ± 0.47 fold induction over basal
